{"source": "patent US20060052303A1", "about": "“Use of thyrotropin for regeneration of bone” (priority 2004, published 2006)", "key": {"[1]": {"conditions": "obtained from the Scripps Institute; cited from earlier work"}, "[2]": {"system": "thyroid", "conditions": "in rats; cited from earlier work"}, "[3]": {"system": "ovariectomized (OVX) rats", "experiment": "Bone restoration study in ovariectomized rats with native rat TSH (Example 3B)", "assay_type": "in vivo", "experimental": "To confirm that TSH has an anabolic effect on bone, a restoration study was performed, Native rat TSH was administered seven months after ovariectomy essentially following a similar dose and dosing regimen as described in Example 2B except that administration of TSH was extended until 16 weeks.\nTwelve animals were sham operated, while forty eight were ovariectomized (OVX) bilaterally by abdominal approach. Treatment started six weeks after ovariectomy as follows: (1) SHAM (n=12); (2) OVX+vehicle (n=12); (3) OVX+0.01 μg (n=12); (3) OVX+0.1 μg (n=12); and (4) OVX+0.3 μg (n=12).\nBone mineral density monitoring in vivo and ex vivo and serum and urine biochemical analyses were performed essentially as described in Example 3A. Eight-month old rats were ovariectomized and then left for seven months to lose bone. Therapy was then started and continued for 16 weeks and BMD was measured both in vivo and ex vivo, and microCT and serum biochemistry were performed."}, "[4]": {"system": "OVX rats", "experiment": "Treatment of osteopenia in OVX rats using rat TSH (Example 2B)", "assay_type": "in vivo", "experimental": "A similar study following essentially the same dosing regimens. was performed using the native rat TSH in OVX rats. […] Rat TSH with a specific activity of approximately 90 lU/mg was obtained from the Scripps Institute. Bone mineral monitoring in vivo and serum and urine biochemical analyses were performed essentially as described in Example 3A.\nBiochemical assays—Urinary levels of deoxypyridinoline cross-links and creatinine (DPD and Cr, respectively) are analyzed in duplicate using rat ELISA kits from Metrobiosystems (Mountain View, Calif., USA). Serum levels of osteocalcin (OSC) are measured using a rat sandwich ELISA kit from Biomedical Technologies (Stroughton, Mass., USA). The manufacturer's protocols are followed, and all samples are assayed in duplicate. A standard curve is generated from each kit, and the absolute concentrations are extrapolated from the standard curve. […]\nThe complete secondary spongiosa of the proximal tibia is evaluated, thereby completely avoiding sampling errors incurred by random deviations of a single section. […] From the binarized images, structural indices are assessed with three-dimensional (3D) techniques for trabecular bone.\nRelative bone volume, trabecular number, thickness, and separation are calculated by measuring 3D distances directly in the trabecular network and taking the mean over all voxels.\nBone surface is calculated from a tetrahedron meshing technique. By displacing the surface of the structure in infinitesimal amounts, the structure model index (SMI) is calculated. The SMI quantifies the plate versus rod characteristics of trabecular bone, in which an SMI of 0 pertains to a purely plate-shaped bone, an SMI of 3 designates a purely rod-like bone, and values between stand for mixtures of plates and rods. Furthermore, connectivity density based on the Euler number is determined. In addition, a 3D cubical voxel model of bone is built, and cortical thickness is measured."}, "[5]": {"conditions": "in particular with 0.1 and 0.3 μg/rat"}}}
{"substance": "rat TSH: native rat TSH obtained from the Scripps Institute", "values": [{"measurement": "specific activity", "setting": "[1]", "value": "approximately 90 lU/mg"}, {"measurement": "effectiveness in stimulating thyroid hormone production compared to human recombinant TSH", "setting": "[2]", "value": "10-20 times"}, {"measurement": "BMD values of hind limbs in vivo", "setting": "[3]; 0.01 μg/rat, 12 and 16 weeks time points", "value": "did not induce a measurable effect"}, {"measurement": "cortical thickness above ovariectomized rats", "setting": "[3]; 0.1 μg/rat", "value": 14, "unit": "%"}, {"measurement": "cortical thickness above sham animal values", "setting": "[3]; 0.1 μg/rat", "value": "~10", "unit": "%"}, {"measurement": "ex vivo proximal femur BMD (DEXA)", "setting": "[3]; 0.3 μg", "value": "increased"}, {"measurement": "cortical thickness (microCT)", "setting": "[3]; 0.1 and 0.3 μg/rat", "value": "increased"}, {"measurement": "BMD values of hind limbs in vivo", "setting": "[3]; 0.1 and 0.3 μg/rat, FIG. 14", "value": "increased"}, {"measurement": "bone volume of long bones and the spine (microCT, trabecular bone ex vivo)", "setting": "[3]; all three doses tested (0.01, 0.1, 0.3 μg)", "value": "increased"}, {"measurement": "ex vivo lumbar spine BMD", "setting": "[3]; [5]", "value": "increased"}, {"measurement": "ex vivo tibia BMD", "setting": "[3]; [5]", "value": "increased"}, {"measurement": "trabecular number (microCT)", "setting": "[3]; lesser extent than trabecular thickness", "value": "increased"}, {"measurement": "T3 and T4 serum levels", "setting": "[3]; rat, in vivo", "value": "no measurable increase"}, {"measurement": "ex vivo distal femur BMD (DEXA)", "setting": "[3]; rat, in vivo", "value": "slightly increased"}, {"measurement": "ex vivo total femur BMD (DEXA)", "setting": "[3]; rat, in vivo", "value": "slightly increased"}, {"measurement": "trabecular thickness (microCT)", "setting": "[3]; vs sham and ovariectomized rats", "value": "significantly increased"}, {"measurement": "bone loss associated with ovariectomy", "setting": "[4]; 0.01, 0.1, 0.3 μg per rat, in vivo total body, hind limbs, lumbar BMD, ex vivo proximal femur and tibia BMD, microCT", "value": "effective in preventing the bone loss"}, {"measurement": "serum collagen C-telopeptide", "setting": "[4]; indicates anti-resorptive activity", "value": "reduction"}, {"measurement": "effective concentration in the rat relative to human TSH", "setting": "[4]; rat, in vivo", "value": "effective in the rat at lower concentration than human TSH"}]}
